Experimental data reported in patent US8097625B2, “Combination of sedative and a neurotransmitter modulator, and methods for improving sleep quality and treating depression” (priority 2003, dated 2012).

Tests used:
[1] = system: subjects with insomnia related to major depressive disorder; experiment: DREAMDD clinical study: fluoxetine titration (20 mg to 40 mg at Visit 7); type: in vivo, human; conditions: for Subjects on Fluoxetine Hydrochloride 20 mg / Subjects on Fluoxetine Hydrochloride 40 mg: eszopiclone 3 mg group, ITT
Protocol: In addition, subjects were randomized at Visit 3 (end of baseline) to treatment with one of the following nightly (at bedtime): eszopiclone (3 mg) or matching placebo.
Sleep, Depression, and Productivity Questionnaires and Clinical Global Impression: The following questionnaires were administered as listed below. • Epworth Sleepiness Scale (ESS): ESS was completed by the subject at Visits 2-10. The ESS is a subjective assessment of the likelihood of falling asleep in various situations. • Insomnia Severity Index (ISI): ISI was completed by the subject at Visits 3, 5, 7, 9 and 10. The ISI is a subjective assessment of sleep quality, restedness/refreshness upon arising, daytime fatigue, attention/concentration and relationship and mood disturbances. • Work Limitations Questionnaire (WLQ): WLQ was completed by the subject at Visits 3, 5, 7, 9, and 10. The WLQ is a validated self-report instrument for measuring the degree to which chronic health problems interfere with ability to perform job roles, addressing the content of the job through a demand-level methodology. • Hamilton Depression-17: HAM-D-17 was administered via IVRS at screening and rated by a trained clinician at Visits 3, 7, 9, and 10. • SF-36: SF-36 was completed by the subject at Visits 3, 7, 9 and 10. The SF-36 represents multiple operational definitions of health, including function and dysfunction, distress and well-being, objective reports and subjective ratings, and both favorable and unfavorable self-evaluations of general health status. • Clinical Global Impression (CGI): CGI was completed by the investigator at Visits 3-10 The CGI is the investigator's subjective assessment of improvement in the subject's depressive symptoms. The response on the CGI at Visit 7 (Week 4 of double-blind treatment) was used by the investigator to assess the need for increasing the dose of fluoxetine to 40 mg daily (in the morning). […] Study Conduct
Visit 7 occurred 7 (±2) days after Visit 6. […] Double-blind dosing (at bedtime) continued nightly through Visit 9. • 1. Collected and reviewed the MEC. Recorded all changes in concurrent medications, including OTC and health and dietary supplements, and AEs that may have occurred between Visit 6 and Visit 7. • 2. […] Subjects completed the ESS, 1SI, WLQ, and SF-36 questionnaires prior to performing any other study related procedures. The questionnaires were reviewed for completeness by study staff. Any items left blank were returned to the subject for completion. • 4. A trained clinician administered the Hamilton-D-17 to assess depression symptoms. • 5. The investigator completed the Clinical Global Impression. […] If an increased dose of fluoxetine was required, the investigator dispensed the double-blind blister pack containing the 40 mg dose of fluoxetine. • 6. Dispensed the appropriate Visit 7 double-blind blister pack. […] Note: only one Visit 7 blister card was dispensed. • 7. Obtained vital signs (seated) and weight. • 8. Obtained blood and urine samples for clinical laboratory assessments including urinalysis, urine drug and alcohol screen, and a serum pregnancy tests on all women. • 9. Reviewed use of IVRS and the schedule for calling. Subjects call the IVRS the morning following this visit and on the morning of Visit 8 (prior to the visit). • 10. Issued MEC and instruct the subject on its use. • 11. Scheduled Visit 8 in 14 (±2) days. Visit 8 (Double-Blind Treatment Week 6)

[2] = DREAMDD clinical study: subject disposition; type: in vivo, human; conditions: of 270 randomized; 3 mg nightly + fluoxetine
Description: Subjects who discontinued early for any reason were replaced.
Subject Disposition and Drug Exposure: Subject disposition was summarized and presented for the number and percentage of subjects, who were screened, randomized, received treatment, completed the study, and discontinued early (including reasons for discontinuations). For each subject, the number of doses taken was computed from the study drug dispensation and accountability CRF records obtained at each visit, assuming that subjects took their study drug medication evenly throughout the between-visits periods. The extent of exposure to the double-blind medication as well as the number of doses taken during the double-blind treatment period was summarized with descriptive statistics and presented by treatment group.

CN1CCN(C(=O)OC2c3nccnc3C(=O)N2c2ccc(Cl)cn2)CC1 (single isomer, unassigned; (+)) [Eszopiclone, (+) 6-(5-chloro-2-pyridinyl)-6,7-dihydro-7-oxo-5H-pyrrolo[3,4b]pyrazin-5-yl 4-methylpiperazine-1-carboxylate]
Subjects on Fluoxetine Hydrochloride 20 mg ([1]; Visit 7 (Week 4)): 125 (55.8%) n (%)
Subjects on Fluoxetine Hydrochloride 40 mg ([1]; Visit 7 (Week 4)): 99 (44.2%) n (%)
Subjects on Fluoxetine Hydrochloride 20 mg ([1]; Visit 8 (Week 6)): 115 (54.0%) n (%)
Subjects on Fluoxetine Hydrochloride 40 mg ([1]; Visit 8 (Week 6)): 98 (46.0%) n (%)
Subjects on Fluoxetine Hydrochloride 20 mg ([1]; Visit 9 (Week 8)): 103 (52.8%) n (%)
Subjects on Fluoxetine Hydrochloride 40 mg ([1]; Visit 9 (Week 8)): 92 (47.2%) n (%)
antidepressant dose escalation to higher dose of fluoxetine ([1]; co-administration with fluoxetine vs placebo): less patients in this study required antidepressant dose escalation
Fluoxetine dose increases ([1]; p<0.05 vs placebo, 3 mg nightly + fluoxetine): 44%
Subject Disposition: Discontinued, AE [2]: 17 (6.3) n (%)
Subject Disposition: Discontinued, Treatment for Insomnia Failure [2]: 2 (0.7) n (%)
